Entries after “also recorded” stand apart in the source; their conditions may differ. Structures can show the parent of a compound that is named as a salt.
Key:
[1] = system: individual single vagal fibers (mesenteric nerve bundle of jejunal segment); experiment: Ex vivo vagal nerve fiber recording, test substance in lumen of jejunal segment, post hoc single unit burst analysis; set-up: species or system BALB/c mice; conditions: for Average inter-pulse duration, lower 95% CI / Average inter-pulse duration, upper 95% CI / Burst duration, lower 95% CI / Burst duration, upper 95% CI / Inter-burst duration, lower 95% CI / Inter-burst duration, upper 95% CI / Inter-pulse duration within bursts, lower 95% CI / Inter-pulse duration within bursts, upper 95% CI: drug in lumen; for Fraction average inter-pulse duration / Fraction burst duration / Fraction inter-burst duration / Fraction inter-pulse duration within bursts: fractional change (treatment−control)/control; for Fraction average inter-pulse duration: luminal fluoxetine 30 μM, sertraline 10 μM, bupropion 10 μM, JB-1 10^9 cfu/mL, squalamine 10 μM; for Fraction burst duration / Fraction inter-burst duration / Fraction inter-pulse duration within bursts: same luminal concentrations
Protocol: Adult BALB/c mice were killed by cervical dislocation. Then a 2-3 cm long jejunal segment with attached mesenteric tissue was removed and the oral and anal ends of the jejunal segment were cannulated with plastic tubing, gently emptied of contents by perfusing the lumen with Krebs buffer using a 3 mL plastic syringe whose tip was inserted into the oral opening. The cleaned jejunal segment was placed into a polystyrene petri dish (Falcon 351006, 50 mm×9 mm, Corning, N.Y., USA) filled with Krebs buffer of the following composition (in mM): 118 NaCl, 4.8 KCl, 25 NaHCO3, 1.0 NaH2PO4, 1.2 MgSO4, 11.1 glucose, and 2.5 CaCl2) bubbled with carbogen (95% 02 and 5% 002). The bottom of the dish was previously lined 1-2 mm deep with cured silicone elastomer SYLGARD®, Dow Corning, MI, USA.
Next the mesenteric nerve bundle was isolated by careful dissection under a stereomicroscope (Leika) using pointed number 5 forceps (Fine Science Tools), and the dish and contents were transferred to an inverted microscope (Nikon).
The gut segment and attached mesenteric tissue was then pinned linearly, without stretching, from oral to anal in the dish by pushing fine insect pins through the adherent mesentery into the silicone elastomer SYLGARD®. The lumen was gravity perfused (1 ml/min) at room temperature (20-25° C.), with oxygenated Krebs buffer and using several Mariotti bottles (McCarthy, Science 80: 100, 1934) attached to a plastic manifold (World Precision Instruments, Sarasota, Fla., USA). The serosal compartment was separately perfused with pre-warmed (35° C.) Krebs buffer at 4 ml/min. 3 μM nicardipine hydrochloride was added to the latter Krebs buffer to paralyze the smooth muscle to isolate chemosensory afferent signals from motility-related vagal responses (Perez-Burgos et al., Am J Physiol Gastrointest Liver Physiol 304: G211-220, 2013).
The nerve bundle was gently sucked onto a glass pipette attached to a patch-clamp electrode holder (CV-7B; Molecular Devices, Sunnyvale, Calif.), and extracellular nerve recordings were performed using a Multi-Clamp 700B amplifier and Digidata 1440A signal converter (Molecular Devices). Electrical signals were bandpass-filtered at 0.1-2 kHz, sampled at 20 kHz, and stored on a personal computer running pClamp 10 software (Molecular Devices) for post hoc analysis. Constitutive multiunit electrical activity was always recorded from the mesenteric nerve bundle even when the lumen was perfused with only Krebs buffer. Baseline recordings with Krebs buffer in the lumen were performed for 15 min, after which the luminal perfusate was switched to one containing Krebs buffer with substances to be tested (fluoxetine 30 μM, sertraline 10 μM, bupropion (WELLBUTRIN®) 10 μM, Lactobacillus rhamnosus JB-1 10^9 cfu/mL, or squalamine 10 μM). Recording in the presence of test substances was performed for up to 40 min after which the luminal perfusate was again switched to Krebs buffer and recording continued for up to 30 min.
Single units representing discharge from individual single vagal fibers were discriminated and identified by their unique spike waveform shape and amplitude (Rong et al., J Physiol 560: 867-881, 2004) using Dataview computer software (Heitler, Journal of Undergraduate Neuroscience Education 6: A1-A7, 2007). Dataview uses principal component analysis to sort the recorded multiunit spikes into individual single unit categories according to shape and amplitude (Heitler, Journal of Neuroscience Methods 185: 151-164, 2009).
Control and treatment periods were identified from event markers inserted at the time of recording. Then, for each channel (color-coded unit), spike bursts were detected using the “Poisson surprise” method devised by Legéndy & Salcman (Legendy & Salcman, J Neurophysiol 53: 926-939, 1985). A surprise was defined as −log 10(p), where p is the probability of a set of events occurring this close together by chance. […]

[2] = system: BALB/c mice (depressive-like behavior); experiment: Tail Suspension Test (TST) after oral treatment, intact and vagotomized mice; type: in vivo; conditions: for depressive and anxiety behavior in mice: oral administration, intact vagus nerve; for effect on depressive and anxiety behavior in vagotomized mice: sub-diaphragmatic vagotomy prior to oral administration; for dependency of the effect on the vagus nerve: vagotomized mice compared to mice with an intact vagus nerve
Protocol: BALB/c mice were orally fed antidepressants fluoxetine (18 mg/kg per day), sertraline (6 mg/kg per day) and bupropion (WELLBUTRIN®) (6 mg/kg per day) in the drinking water for 14 days, or JB-1 (2.5-4×10^9 bacteria/day) in the drinking water for 28 days.
1 day following oral treatments with the antidepressants, the BALB/c mice were tested for depressive-like behavior with the tail suspension test. Mice were removed from the colony room and moved to a behavioral testing room where they were allowed to habituate for 30 min. Following this period, mice were suspended by the tail using laboratory tape measured to 17 cm (Can et al., Journal of Visualized Experiments 59: e3769, 2012) from a suspension bar in a position whereby they could not escape or hold on to any surfaces. 2 cm of tape was affixed to the mouse tail with the remaining 15 cm used for suspension of the mouse. Animals were left suspended for a period of 6 mins. Animal behavior was video recorded and scored by a blinded observer for freezing behavior. Freezing was calculated as a percentage of total time. Following behavioral testing mice were returned to the housing room and resumed oral treatments for the duration of the study.
The Tail Suspension Test is a simple screening test for the behavioral effects of antianxiety agents and antidepressants in rodents. This test assesses the inter-individual differences in responses to stressful situations measured by duration of immobility.

[3] = system: individual single vagal fibers (mesenteric nerve bundle of jejunal segment); experiment: Ex vivo vagal nerve fiber recording from mice orally fed antidepressants, lumen perfused with buffer only; set-up: species or system BALB/c mice; conditions: fed in the drinking water for 14 days; fluoxetine 18, sertraline 6, bupropion 6 mg/kg per day
Protocol: The procedure described above in connection with Example 1 and 2 was repeated for the BALB/c mice orally fed with antidepressants fluoxetine (18 mg/kg per day), sertraline (6 mg/kg per day) and bupropion (WELLBUTRIN®) (6 mg/kg per day) in the drinking water for 14 days. Following the oral treatment, the mice were sacrificed and a jejunal segment with mesenteric tissue was recovered as described in Example 1. In this example, the lumens of the jejunal segments were, however, perfused only with KREPS buffer.
FIG. 16 illustrates the mean interval between spike firing, i.e., average inter-pulse durations, for luminal Krebs control, i.e., from control mice that have not been treated with any antidepressants, and for mice fed with fluoxetine, sertraline or bupropion (WELLBUTRIN®).

[4] = system: patients with Parkinson's disease (PD) and severe constipation; conditions: cited from earlier work
vagal afferent = conditions: aged mice with reduced firing frequency; cited from earlier work
colonic motility = conditions: applied intraluminally in mice; cited from earlier work

Compound | Average inter-pulse duration, lower 95% CI [1] | Average inter-pulse duration, upper 95% CI [1] | Burst duration, lower 95% CI [1] | Burst duration, upper 95% CI [1] | Inter-burst duration, lower 95% CI [1] | Inter-burst duration, upper 95% CI [1] | Inter-pulse duration within bursts, lower 95% CI [1] | Inter-pulse duration within bursts, upper 95% CI [1] | Fraction average inter-pulse duration [1] | Fraction burst duration [1] | Fraction inter-burst duration [1] | Fraction inter-pulse duration within bursts [1] | depressive and anxiety behavior in mice [2] | effect on depressive and anxiety behavior in vagotomized mice [2] | dependency of the effect on the vagus nerve [2] | other results
CNCCC(Oc1ccc(C(F)(F)F)cc1)c1ccccc1 (stereo not drawn) [Fluoxetine, fluoxetine] | 612 ms | 983 ms | 510 ms | 771 ms | 11524 ms | 44175 ms | 101 ms | 138 ms | −0.3964 | 0.6424 | −0.1795 | 0.2705 | decreased | disappeared; also recorded: no effect | dependent on the vagus nerve | Inter-burst duration, lower 95% CI ([1]; listed as fluoxetine): 11 524 ms; Inter-burst duration, upper 95% CI ([1]; listed as fluoxetine): 44 175 ms
CC(NC(C)(C)C)C(=O)c1cccc(Cl)c1 (stereo not drawn) [Bupropion, bupropion] | 896 ms | 1081 ms | 412 ms | 543 ms | 49779 ms | 66105 ms | 105 ms | 124 ms | 0.2919 | 0.1778 | 1.152 | 0.01576 | – | present | not to be dependent on the vagus nerve | average inter-pulse durations as compared to control mice [3]: no difference
CN[C@H]1CC[C@@H](c2ccc(Cl)c(Cl)c2)c2ccccc21 [Sertraline, sertraline] | 386 ms | 614 ms | 516 ms | 676 ms | 16160 ms | 36270 ms | 87 ms | 110 ms | −0.1627 | 0.6184 | −0.1554 | 0.1936 | decreased | disappeared | dependent on the vagus nerve; also recorded: same dependency of action | Inter-burst duration, lower 95% CI ([1]; listed as sertraline): 16 160 ms; Inter-burst duration, upper 95% CI ([1]; listed as sertraline): 36 270 ms
CC(C)[C@@H](CC[C@@H](C)[C@H]1CC[C@H]2[C@@H]3[C@H](O)C[C@H]4C[C@@H](NCCCNCCCCN)CC[C@]4(C)[C@H]3CC[C@]12C)OS(=O)(=O)O [Squalamine, 3(3β,5α,7α,24R)-3-({3-[(4-aminobutyl)amino]propyl}amino)-7-hydroxycholestan-24-yl hydrogen sulfate] | 334 ms | 675 ms | 111 ms | 1954 ms | 11233 ms | 34229 ms | 98 ms | 136 ms | −0.183 | 0.6752 | −0.2957 | 0.1394 | – | – | – | relief of constipation ([4]; increasing dosage schedule, 50 patients): positive beneficial effects; neurological symptoms in PD patients like hallucinations, sleep and circadian rhythm disturbances ([4]; while patients were taking the drug): attenuated or prevented; vagal afferent firing frequency (vagal afferent): increases; Burst duration, lower 95% CI ([1]; listed as squalamine): 110 ms; Burst duration, upper 95% CI ([1]; listed as squalamine): 1 954 ms; Inter-burst duration, lower 95% CI ([1]; listed as squalamine): 11 233 ms; Inter-burst duration, upper 95% CI ([1]; listed as squalamine): 34 229 ms; Inter-pulse duration within bursts, upper 95% CI ([1]; listed as squalamine): 136 ms; vagus code compared with other antidepressants ([1]; squalamine 10 μM in lumen): almost identical vagus code as sertraline; age and loperamide-related dysmotility (colonic motility): reversed; effects on colonic motility (colonic motility): prokinetic effects

From patent publication US20190299005A1, “VAGUS NERVE STIMULATION AND MONITORING” (priority 2018, published 2019)
